In the assay the target is Carbonic anhydrase 2 (Bos taurus, UniProt P00921). Kind of assay: Binding affinity to bovine carbonic anhydrase 2.

Our source for the Ki values is BindingDB's records for doi:10.1016/j.bmcl.2010.11.050 (The University of Tokushima Graduate School, 2010).

Sequence of Carbonic anhydrase 2 (P00921 whole entry): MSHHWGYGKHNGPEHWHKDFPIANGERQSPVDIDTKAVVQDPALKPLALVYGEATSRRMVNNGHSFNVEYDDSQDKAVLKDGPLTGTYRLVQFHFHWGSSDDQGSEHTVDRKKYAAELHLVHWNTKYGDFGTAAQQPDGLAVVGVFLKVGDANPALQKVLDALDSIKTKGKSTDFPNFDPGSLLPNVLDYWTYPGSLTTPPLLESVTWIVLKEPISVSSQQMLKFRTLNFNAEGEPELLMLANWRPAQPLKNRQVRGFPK

In turn, `N#Cc1ccc(S(N)(=O)=O)cc1` [4-Cyano-Benzenesulfonamide] displayed a Ki of 7.1 nM.

`NS(=O)(=O)c1ccc(Br)cc1` [p-Halide-sulfanilamide derivative, 2a]: the affinity corresponds to a Ki of 14 nM. This Ki is about 2-fold higher than that of the compound before.

`NS(=O)(=O)c1ccc(Cl)c(Cl)c1` [3,4-Dichloro-Benzenesulfonamide] gave a Ki of 2.5 nM.

Consider `NS(=O)(=O)c1cccc(Cl)c1` [3-Chloro-Benzenesulfonamide], for which the Ki was 16 nM.

In turn, `CC(=O)c1ccc(S(N)(=O)=O)cc1` [4-Acetyl-Benzenesulfonamide] had a Ki of 17 nM. The Ki values of the last two compounds are within 1.5-fold of each other.

Compound `COc1ccc(S(N)(=O)=O)cc1` [4-Methoxy-Benzenesulfonamide] came in with an inhibition constant Ki of 102 nM.

Regarding `NS(=O)(=O)c1ccc([N+](=O)[O-])c(C(F)(F)F)c1`, affinity was put at a Ki of 1.7 nM.

For the compound `NS(=O)(=O)c1cccc([N+](=O)[O-])c1` [3-Nitro-benzenesulfonamide], the Ki was determined as 8.5 nM. Against the preceding compound, the Ki is about 5-fold higher.

`Cc1cccc(S(N)(=O)=O)c1` [3-Methylbenzenesulfonamide] registered a Ki of 132 nM.

As to `CNc1ccc(S(N)(=O)=O)cc1` [4-Methylamino-benzenesulfonamide], affinity was put at a Ki of 288 nM.

On to `Cc1ccc(S(N)(=O)=O)cc1`, for which the Ki was found to be 58 nM. Against the preceding compound, the Ki is about 5-fold lower.

In the case of `NS(=O)(=O)c1ccc(Cl)c([N+](=O)[O-])c1` [4-Chloro-3-nitro-benzenesulfonamide], the affinity corresponds to a Ki of 2 nM.

`NS(=O)(=O)c1ccc(Cl)cc1` [p-Halide-sulfanilamide derivative, 2] had a Ki of 14 nM.

One may read the Ki as the dissociation constant of the complex between target and ligand, obtained from inhibition or displacement. Low values mean tighter binding, high ones weaker binding.
